Laboratory results taken from ChEMBL document CHEMBL1146393, “Coriaheptocins A and B, the First Heptahydroxylated Acetogenins, Isolated from the Roots of Annona coriacea 1” (1997).
Values after ≈ are worked out from the molar mass of the structure shown.

What follows are compounds tested on KB (assay: Cytotoxicity against human KB cells). Settings: read-out: ED50 (the source's name).
Type: functional

Structure (SMILES)	EC50
CC(=O)O[C@H]1C(=O)[C@@]2(C)[C@H]([C@H](OC(=O)c3ccccc3)[C@]3(O)C[C@H](OC(=O)[C@H](O)[C@@H](NC(=O)c4ccccc4)c4ccccc4)C(C)=C1C3(C)C)[C@]1(OC(C)=O)CO[C@@H]1C[C@@H]2O [PACLITAXEL]	0.02 µg/mL (≈ 0.0234 µM)
CCCCCCCCCCCC[C@@H](O)[C@H](O)CC[C@H](O)C[C@@H](O)C[C@H](O)[C@@H]1CC[C@H]([C@H](O)CC[C@@H](O)CC2=C[C@H](C)OC2=O)O1 [CORIAHEPTOCIN B]	0.18 µg/mL (≈ 0.279 µM)
CCCCCCCCCCCC[C@@H](O)[C@H](O)CC[C@H](O)C[C@@H](O)C[C@H](O)[C@@H]1CC[C@@H]([C@H](O)CC[C@@H](O)CC2=C[C@H](C)OC2=O)O1 [CORIAHEPTOCIN A]	0.63 µg/mL (≈ 0.977 µM)
